From ChEMBL document CHEMBL1201862, “PubChem BioAssay data set” (2004)
Calls of active or inactive are those of the source.

Assays:
[1] = target: Dual specificity tyrosine-phosphorylation-regulated kinase 1A (Rattus norvegicus, UniProt Q63470); assay type: biochemical, Homo sapiens
cells [2] = assay type: functional
[3] = target: Voltage-dependent T-type calcium channel subunit alpha-1H (Homo sapiens, UniProt O95180); assay type: functional;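 further: channel activity triggered by adding a high calcium stimulation buffer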
Sequence of Voltage-dependent T-type calcium channel subunit alpha-1H (O95180 whole entry): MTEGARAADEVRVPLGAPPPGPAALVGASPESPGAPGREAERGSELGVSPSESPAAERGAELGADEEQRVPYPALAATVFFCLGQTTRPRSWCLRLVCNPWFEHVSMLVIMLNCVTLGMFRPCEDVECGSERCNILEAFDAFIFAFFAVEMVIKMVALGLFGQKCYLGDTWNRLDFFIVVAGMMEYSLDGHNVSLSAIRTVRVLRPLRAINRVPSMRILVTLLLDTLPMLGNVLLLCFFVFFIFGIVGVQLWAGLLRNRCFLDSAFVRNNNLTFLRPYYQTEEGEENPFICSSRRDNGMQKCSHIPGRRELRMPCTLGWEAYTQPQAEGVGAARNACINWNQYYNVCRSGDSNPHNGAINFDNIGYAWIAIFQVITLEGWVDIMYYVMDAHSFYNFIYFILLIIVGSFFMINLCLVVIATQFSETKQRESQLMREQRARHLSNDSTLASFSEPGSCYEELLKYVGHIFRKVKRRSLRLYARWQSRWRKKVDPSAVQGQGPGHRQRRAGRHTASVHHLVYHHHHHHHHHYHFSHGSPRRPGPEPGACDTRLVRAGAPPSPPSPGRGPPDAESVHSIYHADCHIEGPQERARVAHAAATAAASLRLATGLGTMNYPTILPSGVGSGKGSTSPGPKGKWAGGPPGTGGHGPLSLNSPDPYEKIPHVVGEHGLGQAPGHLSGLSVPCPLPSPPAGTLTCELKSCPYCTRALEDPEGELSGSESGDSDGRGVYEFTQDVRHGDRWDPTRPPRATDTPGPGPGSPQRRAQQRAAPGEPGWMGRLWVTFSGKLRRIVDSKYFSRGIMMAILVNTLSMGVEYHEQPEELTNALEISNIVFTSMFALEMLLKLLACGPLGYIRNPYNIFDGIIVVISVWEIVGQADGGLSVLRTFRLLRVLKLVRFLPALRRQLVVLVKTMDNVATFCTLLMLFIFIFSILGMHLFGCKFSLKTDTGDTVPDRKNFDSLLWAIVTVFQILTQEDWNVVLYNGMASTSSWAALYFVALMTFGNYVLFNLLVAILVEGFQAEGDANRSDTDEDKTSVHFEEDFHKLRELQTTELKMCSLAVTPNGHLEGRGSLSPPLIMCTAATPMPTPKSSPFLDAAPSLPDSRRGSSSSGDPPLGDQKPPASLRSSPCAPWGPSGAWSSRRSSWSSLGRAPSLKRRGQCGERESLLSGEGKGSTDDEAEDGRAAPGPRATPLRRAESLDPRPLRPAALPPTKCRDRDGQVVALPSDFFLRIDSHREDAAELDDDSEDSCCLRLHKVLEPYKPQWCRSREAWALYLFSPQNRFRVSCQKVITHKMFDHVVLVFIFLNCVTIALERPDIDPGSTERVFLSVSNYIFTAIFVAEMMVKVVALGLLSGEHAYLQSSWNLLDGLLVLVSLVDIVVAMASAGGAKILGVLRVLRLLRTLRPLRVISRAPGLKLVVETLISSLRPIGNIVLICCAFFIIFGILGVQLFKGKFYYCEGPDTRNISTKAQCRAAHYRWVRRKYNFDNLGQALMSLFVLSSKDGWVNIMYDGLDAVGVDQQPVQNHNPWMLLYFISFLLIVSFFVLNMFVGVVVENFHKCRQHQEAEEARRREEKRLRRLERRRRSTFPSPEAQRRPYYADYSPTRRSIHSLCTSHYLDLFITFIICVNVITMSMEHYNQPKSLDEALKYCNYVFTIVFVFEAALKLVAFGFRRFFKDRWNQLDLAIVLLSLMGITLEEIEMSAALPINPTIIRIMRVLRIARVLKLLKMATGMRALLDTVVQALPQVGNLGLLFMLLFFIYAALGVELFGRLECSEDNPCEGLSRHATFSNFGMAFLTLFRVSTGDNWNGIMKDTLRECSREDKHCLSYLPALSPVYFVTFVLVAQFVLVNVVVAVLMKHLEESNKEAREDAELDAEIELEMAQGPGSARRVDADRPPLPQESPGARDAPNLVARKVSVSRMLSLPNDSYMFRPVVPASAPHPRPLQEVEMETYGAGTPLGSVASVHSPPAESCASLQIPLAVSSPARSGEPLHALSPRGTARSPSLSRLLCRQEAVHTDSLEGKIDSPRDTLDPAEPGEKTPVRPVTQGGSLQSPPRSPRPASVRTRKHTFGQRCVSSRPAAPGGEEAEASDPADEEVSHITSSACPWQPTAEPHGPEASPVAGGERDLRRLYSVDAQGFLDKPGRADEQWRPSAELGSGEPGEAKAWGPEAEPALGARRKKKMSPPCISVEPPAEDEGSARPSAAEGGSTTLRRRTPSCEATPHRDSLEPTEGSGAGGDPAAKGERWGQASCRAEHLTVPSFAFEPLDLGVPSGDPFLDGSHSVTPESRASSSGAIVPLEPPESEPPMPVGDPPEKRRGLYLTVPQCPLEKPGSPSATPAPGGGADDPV

Caspase-6 = target: T1, Caspase-6 (Homo sapiens, UniProt P55212); assay: human caspase-6 inhibitors, dose response, biochemical, VEID-R110 fluorescence, cherry-pick (AID 720632)
T1 sequence (P55212 whole entry): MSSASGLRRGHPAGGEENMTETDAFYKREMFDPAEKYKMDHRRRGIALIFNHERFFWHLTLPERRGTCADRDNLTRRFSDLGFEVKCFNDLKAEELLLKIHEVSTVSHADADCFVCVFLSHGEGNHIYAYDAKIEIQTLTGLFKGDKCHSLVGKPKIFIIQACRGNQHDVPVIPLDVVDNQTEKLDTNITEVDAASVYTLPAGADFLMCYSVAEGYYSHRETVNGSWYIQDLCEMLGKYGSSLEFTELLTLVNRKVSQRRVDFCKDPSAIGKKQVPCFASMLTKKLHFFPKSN

[4] = target: T2, DNA repair protein RAD52 homolog (Homo sapiens, UniProt P43351); assay type: functional, biochemical
T2 sequence (P43351 whole entry): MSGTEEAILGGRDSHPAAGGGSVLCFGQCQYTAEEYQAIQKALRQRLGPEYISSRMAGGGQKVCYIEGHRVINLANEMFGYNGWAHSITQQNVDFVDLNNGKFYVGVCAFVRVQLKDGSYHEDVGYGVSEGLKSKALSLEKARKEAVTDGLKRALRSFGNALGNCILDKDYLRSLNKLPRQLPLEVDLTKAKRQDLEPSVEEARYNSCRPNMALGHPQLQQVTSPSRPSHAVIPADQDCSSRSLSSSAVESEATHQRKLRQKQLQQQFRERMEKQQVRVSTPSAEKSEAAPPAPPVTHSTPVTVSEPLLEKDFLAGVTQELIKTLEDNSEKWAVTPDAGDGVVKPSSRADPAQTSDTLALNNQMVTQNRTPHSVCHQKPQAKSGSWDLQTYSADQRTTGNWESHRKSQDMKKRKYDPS

[5] = ZM109 Env clade C HIV-1 fusion inhibitors, dose response, HeLa effector, CEM target cells, luciferase, cherry-pick (AID 652058); assay type: functional, cell-based
[6] = off-target signal loss in HeLa-CEM21 co-culture – HeLa F-luc CTL cells, cherry-picked, counter-screen for HIV-1 Env fusion inhibitor project, dose response (AID 652040); assay type: functional, cell-based;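 further: potency for signal decrease marking cytotoxic or nonspecific inhibition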
[7] = inhibitors of HIV Env-driven cell fusion, dose response, cherry-pick (AID 652057); assay type: functional, cell-based
[8] = inhibitors of clade B AD8 Env fusion, dose response, cell-based, cherry-pick (AID 652062); assay type: functional;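 further: luciferase signal from cell-cell fusion driven by HIV-1 clade B AD8 Env; potency is for inhibitors of fusion seen as a drop in luminescence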
cells [9] = assay type: functional, cell-based
cells [10] = assay type: functional, cell-based; remark: listed apart in the source
BJ [11] = assay: cells; assay type: functional, cell-based; conditions: Homo sapiens
[12] = cytotoxicity toward DRD oncogenic fibroblasts, dose response, cell-based, non-viral oncogenic, luminescence (AID 1934); assay type: functional; conditions: Homo sapiens
[13] = inhibitors of firefly luciferase expression or activity, dose response, H4 neuroglioma cells, luminescence (AID 1990); assay type: functional, cell-based
BJ [14] = assay: cytotoxicity toward BJ-TERT-LT-ST fibroblasts, dose response, cell-based, RAS-independent, luminescence (AID 1935); assay type: functional; conditions: Homo sapiens;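 further: BJ fibroblasts immortalized with TERT plus LT and ST oncogenes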
BJ [15] = assay: cytotoxicity toward BJ-TERT fibroblasts, dose response, cell-based, RAS-independent, luminescence (AID 1933); assay type: functional; conditions: Homo sapiens
[16] = Luminescence Cell-Based Dose Response HTS to Identify Inhibitors of 5'UTR Stem-Loop Driven Prion Protein mRNA Translation in H4 Neuroglioblastoma Cells. [Related pubchem assays: 1827 (Project Summary), 1813 (Primary HTS)]; assay type: functional
[17] = inhibitors of SNCA 5'UTR-driven reporter translation, confirmation, H4 neuroglioma cells, luminescence (AID 1988); assay type: functional, cell-based
[18] = target: T3, Lysine-specific demethylase 4C (Homo sapiens, UniProt Q9H3R0); assay: GASC-1 (JMJD2C) histone demethylase inhibitors, dose response, biochemical, DELFIA europium, cherry-picked samples (AID 488835); assay type: functional
T3 sequence (Q9H3R0 whole entry): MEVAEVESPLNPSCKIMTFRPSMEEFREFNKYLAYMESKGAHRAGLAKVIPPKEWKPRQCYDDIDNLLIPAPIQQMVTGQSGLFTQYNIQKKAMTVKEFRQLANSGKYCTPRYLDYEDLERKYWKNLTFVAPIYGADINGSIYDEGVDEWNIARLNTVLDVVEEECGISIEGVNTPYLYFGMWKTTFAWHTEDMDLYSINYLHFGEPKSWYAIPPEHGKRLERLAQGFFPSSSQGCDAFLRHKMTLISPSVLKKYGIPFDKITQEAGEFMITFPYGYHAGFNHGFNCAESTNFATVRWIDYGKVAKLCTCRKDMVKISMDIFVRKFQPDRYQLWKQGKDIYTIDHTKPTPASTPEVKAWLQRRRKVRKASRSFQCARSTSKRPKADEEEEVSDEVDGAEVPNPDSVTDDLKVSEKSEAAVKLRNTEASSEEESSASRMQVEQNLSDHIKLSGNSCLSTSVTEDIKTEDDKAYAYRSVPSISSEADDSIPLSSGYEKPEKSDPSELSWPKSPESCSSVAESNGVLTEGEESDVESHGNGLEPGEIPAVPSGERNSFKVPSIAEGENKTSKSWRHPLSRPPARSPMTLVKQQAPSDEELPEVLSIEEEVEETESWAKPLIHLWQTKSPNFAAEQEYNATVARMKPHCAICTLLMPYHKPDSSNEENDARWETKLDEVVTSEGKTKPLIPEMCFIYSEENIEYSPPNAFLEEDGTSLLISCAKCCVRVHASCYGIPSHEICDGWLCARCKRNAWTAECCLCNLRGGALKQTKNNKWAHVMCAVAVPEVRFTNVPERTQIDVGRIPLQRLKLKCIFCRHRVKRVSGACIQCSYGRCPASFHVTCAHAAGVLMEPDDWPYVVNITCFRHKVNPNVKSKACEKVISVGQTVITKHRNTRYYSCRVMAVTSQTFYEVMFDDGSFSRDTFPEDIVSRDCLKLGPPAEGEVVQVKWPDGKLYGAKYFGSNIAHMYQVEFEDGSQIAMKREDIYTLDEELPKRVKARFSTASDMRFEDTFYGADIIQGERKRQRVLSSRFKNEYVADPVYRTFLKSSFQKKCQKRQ

Question: With Cc1ccc2[nH]c(/C(C#N)=C\c3cc(O)ccc3[N+](=O)[O-])nc2c1 as the compound, how does the AC50 [1] read?
Answer: The AC50 was 1.82 µM (active).

Question: Which AC50 [1] does the source give for O=C(CC(SCCO)c1ccc2c(c1)OCO2)c1ccco1 (stereo not given) here?
Answer: Its AC50 is 0.563 µM (active).

Question: Which IC50 (cells [2]) does the source give for CCCCn1c(=O)c(C(=O)Nc2nnc(C(C)C)s2)c(O)c2ccccc21 here?
Answer: The IC50 was 5.24 µM (active).

Question: Which EC50 [3] does the source give for O=C(CCSc1ccc(Cl)c(Cl)c1)NC12CC3CC(CC(C3)C1)C2 here?
Answer: Its EC50 is 5.57 µM (active).

Question: Which AC50 (Caspase-6) does the source give for CCO/C=C1/C(=O)N(c2ccccc2OC)C(=O)c2ccccc21 here?
Answer: The AC50 was 13.9 µM (active).

Question: For CC(C(=O)OCC(=O)Nc1ccc(S(=O)(=O)N2CCCCC2)cc1)N1C(=O)c2ccccc2C1=O (stereo not given), which EC50 [3] is on record?
Answer: The EC50 was 5.44 µM (active).

Question: Which AC50 [4] does the source give for Cc1cc(N2CCN(C)CC2)nc2ccc(NC(S)=NCc3cccs3)cc12 here?
Answer: Its AC50 is 17 µM (active).

Question: For Cc1ccc(C(=O)NCc2ccc3c(c2)OCO3)cc1S(=O)(=O)N1CCCCC1, which EC50 [3] is on record?
Answer: The EC50 was 5.23 µM (active).

Question: For O=C1/C(=C/c2ccc3c(c2)OCO3)Oc2cc(OCC(=O)N3CC(O)C[C@H]3C(=O)O)ccc21 (stereo not given in full), which AC50 [1] is on record?
Answer: The AC50 was 3.56 µM (active).

Question: Which EC50 [3] does the source give for CC1CCCCN1C(=O)CSCC(=O)Nc1nc(-c2cccs2)cs1 (stereo not given) here?
Answer: The EC50 was 4.06 µM (active).

Question: With C=C1CCN([C@H](C(=O)OCc2cccc(C)c2)C(C)C)S(=O)(=O)c2ccccc21 as the compound, how does the AC50 [5] read?
Answer: Its AC50 is 3.64 µM (active).

Question: What about the AC50 [6] of the same compound?
Answer: Its AC50 is 5.21 µM (active).

Question: And the AC50 [7]?
Answer: The AC50 was 1.99 µM (active).

Question: And the AC50 [8]?
Answer: Its AC50 is 4.76 µM (active).

Question: What does the source list for CCCCOC(=O)n1c(=O)oc2cc(S(=O)(=O)N3CCCCC3)ccc21?
Answer: EC50 (cells [9]): > 350 µM (not active); EC50 [3]: 4.48 µM (active); EC50 (cells [10]): > 350 µM (not active)

Question: What does the source list for CCN1C(=O)/C(=C\N2CCN(c3ccc(F)cc3)CC2)SC1=S?
Answer: EC50 (BJ [11]): > 150 µM (not active); EC50 [12]: > 150 µM (not active); EC50 [13]: 16.1 µM (active); EC50 (BJ [14]): > 150 µM (not active); EC50 (BJ [15]): 81.2 µM (active); EC50 [16]: > 120 µM (not active); EC50 [17]: > 120 µM (not active)

Question: For O=C(OCc1nnc(-c2ccccc2)o1)c1cc(S(=O)(=O)N2CCOCC2)c(Cl)cc1Cl, which AC50 [18] is on record?
Answer: The AC50 was 10.8 µM (active).
